One experiment has as its target human orexin-2 receptor (Homo sapiens (Human), UniProt O43614). As to the kind of experiment: In vitro assay: intracellular calcium measurements (FLIPR), antagonistic activity. Conditions: CHO cells, 3 nM orexin-A, marked values are geometric means of n = 2-6, read-out: IC50 OX2. Format: cell-based.
The target in the next experiment is human orexin-1 receptor (Homo sapiens (Human), UniProt O43613). Described as above. In kind it is cell-based. Conditions: CHO cells, 3 nM orexin-A, marked values are geometric means of n = 2-6, read-out: IC50 OX1.
[1] abbreviates: compound incubation time of 10 min.

Read-outs that look alike come from different tables or passages of the source.

human orexin-1 receptor, sequence (O43613 whole entry): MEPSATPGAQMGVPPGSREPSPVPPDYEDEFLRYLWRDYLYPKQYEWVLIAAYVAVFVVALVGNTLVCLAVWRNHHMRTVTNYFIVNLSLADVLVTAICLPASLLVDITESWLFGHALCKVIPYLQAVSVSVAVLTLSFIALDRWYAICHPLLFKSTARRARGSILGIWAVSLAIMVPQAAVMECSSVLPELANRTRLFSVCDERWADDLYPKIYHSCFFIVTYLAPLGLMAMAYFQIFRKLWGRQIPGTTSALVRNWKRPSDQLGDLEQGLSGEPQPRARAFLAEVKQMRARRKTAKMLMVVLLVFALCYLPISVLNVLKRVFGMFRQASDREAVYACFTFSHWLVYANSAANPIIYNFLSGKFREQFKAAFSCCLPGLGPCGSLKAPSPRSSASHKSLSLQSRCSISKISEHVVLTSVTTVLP
human orexin-2 receptor, sequence (O43614 whole entry): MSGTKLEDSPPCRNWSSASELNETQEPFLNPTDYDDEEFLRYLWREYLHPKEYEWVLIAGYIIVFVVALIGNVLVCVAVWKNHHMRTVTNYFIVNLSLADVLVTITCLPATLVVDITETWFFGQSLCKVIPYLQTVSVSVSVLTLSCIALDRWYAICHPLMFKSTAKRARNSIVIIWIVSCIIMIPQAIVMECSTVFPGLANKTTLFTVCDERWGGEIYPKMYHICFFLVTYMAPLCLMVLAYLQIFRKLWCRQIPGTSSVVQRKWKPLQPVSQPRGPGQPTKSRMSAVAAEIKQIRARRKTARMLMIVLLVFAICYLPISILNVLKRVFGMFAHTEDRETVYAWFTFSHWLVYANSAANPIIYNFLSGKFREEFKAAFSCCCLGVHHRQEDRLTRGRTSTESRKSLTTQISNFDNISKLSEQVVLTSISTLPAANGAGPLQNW

By IC50 is commonly meant the concentration at which inhibition is half-maximal. Consider `COc1cccc(Cl)c1C1CCCC(=O)N1Cc1ccc(OC(F)(F)F)cc1` (stereo not shown) [Example 221, 6-(2-chloro-6-methoxyphenyl)-1-(4-(trifluoromethoxy)benzyl)piperidin-2-one], for which the IC50 was determined as 0.154 µM at human orexin-2 receptor (setting [1]) and 4.88 µM on human orexin-1 receptor (setting [1]).

Consider `COc1cccc(C)c1C1CCCC(=O)N1Cc1ccc(OC(F)(F)F)cc1` (stereo not shown) [Example 222, 6-(2-methoxy-6-methylphenyl)-1-(4-(trifluoromethoxy)benzyl)piperidin-2-one], for which the IC50 came out at 0.268 µM on human orexin-2 receptor (setting [1]) and 4.38 µM on human orexin-1 receptor (setting [1]).

In the case of `COc1cccc(C(F)(F)F)c1C1CCCC(=O)N1Cc1ccc(OC(F)(F)F)cc1` (stereo not shown) [Example 223, 6-(2-methoxy-6-(trifluoromethyl)phenyl)-1-(4-(trifluoromethoxy)benzyl)piperidin-2-one], the IC50 at human orexin-2 receptor (setting [1]) is 2.95 µM; at human orexin-1 receptor (setting [1]), > 21.6 µM.

For `O=C1CCCC(c2c(F)cccc2F)N1Cc1ccc(OC(F)(F)F)cc1` (stereo not shown) [Example 224, 6-(2,6-difluorophenyl)-1-(4-(trifluoromethoxy)benzyl)piperidin-2-one], the IC50 at human orexin-2 receptor (setting [1]) amounted to 2.47 µM; on human orexin-1 receptor (setting [1]), 3.19 µM.

`COc1cc(F)c(C2CCCC(=O)N2Cc2ccc(OC(F)(F)F)cc2)c(F)c1` (stereo not shown) [Example 225, 6-(2,6-difluoro-4-methoxyphenyl)-1-(4-(trifluoromethoxy)benzyl)piperidin-2-one]: the IC50 was found to be 5.48 µM at human orexin-2 receptor (setting [1]) and 4.21 µM at human orexin-1 receptor (setting [1]).

Take `Cc1ccc(F)c(C2CCCC(=O)N2Cc2ccc(OC(F)(F)F)cc2)c1F` (stereo not shown) [Example 226, 6-(2,6-difluoro-3-methylphenyl)-1-(4-(trifluoromethoxy)benzyl)piperidin-2-one]: the values for the IC50 on human orexin-2 receptor (setting [1]) and on human orexin-1 receptor (setting [1]) were 2.44 µM and 5.18 µM, respectively.

In the case of `O=C1CCCC(c2c(F)cccc2C(F)(F)F)N1Cc1ccc(OC(F)(F)F)cc1` (stereo not shown) [Example 227, 6-(2-fluoro-6-(trifluoromethyl)phenyl)-1-(4-(trifluoromethoxy)benzyl)piperidin-2-one], the IC50 at human orexin-2 receptor (setting [1]) was determined as 5.9 µM; at human orexin-1 receptor (setting [1]) it was 3.5 µM.

For the molecule `O=C1CCCC(c2c(Cl)cccc2Cl)N1Cc1ccc(OC(F)(F)F)cc1` (stereo not shown) [Example 228, 6-(2,6-dichlorophenyl)-1-(4-(trifluoromethoxy)benzyl)piperidin-2-one], the values for the IC50 on human orexin-2 receptor (setting [1]) and at human orexin-1 receptor (setting [1]) were 0.456 µM and 2.97 µM, respectively.

As for `O=C1CCCC(c2c(F)cccc2Cl)N1Cc1ccc(OC(F)(F)F)cc1` (stereo not shown) [Example 229, 6-(2-chloro-6-fluorophenyl)-1-(4-(trifluoromethoxy)benzyl)piperidin-2-one], the values for the IC50 on human orexin-2 receptor (setting [1]) and at human orexin-1 receptor (setting [1]) were 1.19 µM and 2.92 µM, respectively.

For `COc1cccc(OC(C)C)c1C1CCCC(=O)N1Cc1ccc(OC(F)(F)F)cc1` (stereo not shown) [Example 230, 6-(2-isopropoxy-6-methoxyphenyl)-1-(4-(trifluoromethoxy)benzyl)piperidin-2-one], the IC50 at human orexin-2 receptor (setting [1]) was 0.085 µM; at human orexin-1 receptor (setting [1]), 0.363 µM.

For `COc1cc(F)cc(OC)c1C1CCCC(=O)N1Cc1ccc(OC(F)(F)F)cc1` (stereo not shown) [Example 232, 6-(4-fluoro-2,6-dimethoxyphenyl)-1-(4-(trifluoromethoxy)benzyl)piperidin-2-one], the values for the IC50 at human orexin-2 receptor (setting [1]) and at human orexin-1 receptor (setting [1]) were 0.027 µM and 0.27 µM, respectively.

For the molecule `COc1cc(C)cc(OC)c1C1CCCC(=O)N1Cc1ccc(OC(F)(F)F)cc1` (stereo not shown) [Example 233, 6-(2,6-dimethoxy-4-methylphenyl)-1-(4-(trifluoromethoxy)benzyl)piperidin-2-one], the results for the IC50 at human orexin-2 receptor (setting [1]) and at human orexin-1 receptor (setting [1]) were 0.107 µM and 0.4 µM, respectively.

Consider `COc1cc(F)cc(OC)c1C1CCCC(=O)N1Cc1cccc(-c2ccccc2)c1` (stereo not shown) [Example 234, 1-([1,1′-biphenyl]-3-ylmethyl)-6-(4-fluoro-2,6-dimethoxyphenyl)piperidin-2-one], for which the figures for the IC50 at human orexin-2 receptor (compound incubation 120 min) and at human orexin-1 receptor (compound incubation 120 min) were 0.232 µM and 0.262 µM, respectively.

Turning to `COc1ccc2c(C)noc2c1C1CCCC(=O)N1Cc1cccc(-c2ccccc2)c1` (stereo not shown) [Example 235, 1-([1,1′-biphenyl]-3-ylmethyl)-6-(6-methoxy-3-methylbenzo[d]isoxazol-7-yl)piperidin-2-one], the IC50 at human orexin-2 receptor (compound incubation 120 min) was 0.194 µM; on human orexin-1 receptor (compound incubation 120 min), 0.288 µM.

The values are drawn from patent US9242970B2 (ACTELION PHARMACEUTICALS LTD., priority 2010, dated 2016).
